Holding throughout (type): cell-based, human
Test [1] deals with CD4+CD25- T cells from healthy donors. Put plainly: Suppressor assay: T cells and Treg cocultured in presence of IL-6 (3H-Tdr). The settings on record: T cells from healthy donors incubated overnight with IL-6 (500 ng/ml). An excerpt: In addition to PKB, also IL-6 and its signaling pathway play a crucial role in whether T cells from MS patients respond to suppression by Treg or not. In the context of autoimmune diseases, it has been investigated how the increased IL-6 production observed in MS can affect PTEN protein expression.
(§1) FIG. 5: IL-6 mediates Treg resistance by inducing the phosphorylation of PKB/c-Akt and downregulation of PTEN in activated T cells A) T cells and Treg were cocultured in presence (grey) or absence (black) of IL-6 and stimulated with anti-CD3 mAb. […] B) PKB/c-Akt phosphorylation was analyzed by flow cytometry within T cells after 24 h of culture with (black) or without IL-6 (grey). C) T cells from HC were incubated for 24 h without IL-6 (black) or with IL-6 (grey) or IL-6 and anti-IL-6R mAb (striped). Shown is the mean fluorescence intensity (MFI) of pPKB/c-Akt in T cells (n=5). D) PBMC from HC were cultured for 24 h in the presence or absence of 500 ng/ml IL-6. […] Total proteins were isolated and PTEN protein expression was analyzed via western blot.
CD4^+CD25^− T cells (10^5 cells/well, 96 well plate, flat bottom) were stimulated with 0.1 μg/ml anti-CD3 mAb (OKT-3) and cultured in presence or absence of different Treg ratios. […] T cell proliferation was measured by ^3H-Tdr incorporation using a liquid […] counter. […]

The test system of test [2] is PTEN protein. Put plainly: PTEN protein expression in IL-6-treated activated CD4+ T cells (Western blot). The settings on record: IL-6-treated (500 ng/ml, 24 h) T cells, 2 hours after polyclonal activation, compared to untreated controls. The protocol: FIG. 5: IL-6 mediates Treg resistance by inducing the phosphorylation of PKB/c-Akt and downregulation of PTEN in activated T cells A) T cells and Treg were cocultured in presence (grey) or absence (black) of IL-6 and stimulated with anti-CD3 mAb. […] B) PKB/c-Akt phosphorylation was analyzed by flow cytometry within T cells after 24 h of culture with (black) or without IL-6 (grey). C) T cells from HC were incubated for 24 h without IL-6 (black) or with IL-6 (grey) or IL-6 and anti-IL-6R mAb (striped). Shown is the mean fluorescence intensity (MFI) of pPKB/c-Akt in T cells (n=5). D) PBMC from HC were cultured for 24 h in the presence or absence of 500 ng/ml IL-6. CD4^+ T cells were isolated, left unstimulated or were activated with anti-CD3 and anti-CD28 mAb for two hours. Total proteins were isolated and PTEN protein expression was analyzed via western blot.
Cell pellets were lysed in Cell Extraction Buffer (Invitrogen) supplemented with 1 mM PMSF (Invitrogen) and Protease Inhibitor Cocktail (Sigma) for 30 min on ice with vortexing at 10 min intervals. Total protein concentration of cell lysates was determined with Micro BCA Protein Assay Kit (Thermo Fisher Scientific) according to manufacturer's protocol. Protein separation was performed using the NuPAGE® Bis-Tris electrophoresis system (Thermo Fisher Scientific). […] Western blots were analyzed and quantified with ImageJ software.
(In general: A western blot detects proteins with antibodies after separation by electrophoresis.)

In test [3] the test system is PKB/c-Akt. Put plainly: PKB/c-Akt phosphorylation in T cells after culture with IL-6 (flow cytometry). Here is the method:
as §1
Flow cytometric analysis was performed using the following antibodies: anti-human CD3 (UCHT1), anti-human CD4 (RPA-T4), anti-human CD8 (SK1), anti-human CD14 (M5E2), anti-human CD19 (HIB19), all from BD Pharmingen, anti-human CD25 (4E3), anti-human CD127 (MB15-18C9), all from Miltenyi Biotec. […] Cell viability during flow cytometric analysis was determined using 7-AAD and eFluor506 (eBioscience). […] Stained cells were measured on LSRII with FACS Diva Software (BD Bioscience) or FACSVia™ and data was analyzed with BD FACSVia Research Software (BD Biosciences). […]

Test [4] relates to Treg-resistant T cells from MS patients. The test is described as follows: Suppressor assay: MS T cells cocultured with Treg, proliferation by 3H-Tdr incorporation. The note with it: anti-CD3 mAb stimulation, FIG. 1E, n=4. The protocol: A) PBMC from therapy-naïve MS patients (red) or HC (black) were cocultured with Treg and stimulated with anti-CD3 mAb. T cell proliferation was determined by ^3H-Tdr incorporation on day three. Box plots show percentage of suppression in presence of Treg (ratio 4:1) normalized to proliferation of T cells alone as median with interquartile range (n=15), P-values relative to T cells of HC are shown, to avoid familywise error rate bonferroni correction was used p*. B) C) IL-6R expression within CD3+ T cells of PBMC from HC or MS was determined by flow cytometry. One representative of eight independent experiments is shown. D) PKB/c-Akt phosphorylation was determined by flow cytometry within CD3^+ T cells of MS (red) or HC (black). Six different experiments are shown, p-values relative to MFI of HC. E) MS T cells with Treg were stimulated with anti-CD3 mAb without (circle) or with (quadrats) anti-IL-6R mAb or (triangles) Akt-VIII inhibitor. Each dot represents percentage of proliferation with Treg normalized to T cells alone (n=4), p-values to MS T cells.
CD4^+CD25^− T cells (10^5 cells/well, 96 well plate, flat bottom) were stimulated with 0.1 μg/ml anti-CD3 mAb (OKT-3) and cultured in presence or absence of different Treg ratios. CD3-depleted PBMC (5×10^4/well) were used as costimulus. […] T cell proliferation was measured by ^3H-Tdr incorporation using a liquid […] counter. […]

On to “IL-6: cytokine IL-6 (ImmunoTools) added to cultures”, for which, in test [1], the Treg resistance result is reported as “induce Treg resistance”. For the same compound, in test [2], the PTEN protein expression result was “significant decrease in PTEN protein expression”. Besides, the “phosphorylation of protein kinase B” value in test [3] (T cells from healthy donors, 24 h with IL-6) is “increased phosphorylation of protein kinase B”.
As for “Tocilizumab [anti-IL-6 receptor antibody]”, in test [3] (T cells from HC, 24 h with IL-6 and anti-IL-6R mAb, n=5), the “IL-6-induced hyperactivation of PKB” value is given as “abolished this effect”. Moreover, in test [4], the “responsiveness towards Treg-mediated suppression” value is “restores responsiveness towards Treg-mediated suppression”.
`O=c1[nH]c2ccccc2n1C1CCN(Cc2ccc(-c3nc4cc5nc[nH]c5cc4nc3-c3ccccc3)cc2)CC1` [Akt VIII]: the “responsiveness towards Treg-mediated suppression” value in test [4] is recorded as “restores responsiveness towards Treg-mediated suppression”.
